# Measurements from patent US20250195684A1, “DELIVERY METHODS USING PLATELETS” (Children's Hospital Medical Center, priority 2022, published 2025).
# Tests used:
# [1] = system: human iPSC line 1383D6; test: Effect of cytochalasin B on platelet-based mCherry mRNA delivery; format: cell-based; settings: 100 nM or 350 nM
# Method: The effects of cytochalasin B (CytoB), which is an inhibitor of tunneling nanotubes, on platelet-based mRNA delivery were investigated in the exemplary human iPSC line 1383D6. The cells were plated at a density of 2×10^5 cells/well in a 12 well plate and grown overnight at 37° C. with 5% CO2. Platelets were loaded with 5 μg of mCherry mRNA using Lipofectamine MessengerMax as described herein. The mRNA loaded platelets were further prepared by centrifuging at 1800×g at room temperature for 10 min, washing with EBM, and resuspending in fresh 600 μL culture media. Then, 100 μL of the mRNA loaded platelets (corresponding to 0.8 μg mRNA/well) containing 100 nM or 350 nM CytoB (or without CytoB as control) was added to the cells in a total volume of 1 mL culture media. After 24 hour incubation at 37° C. with 5% CO2, fluorescent images were obtained with a BZ-X810 fluorescence microscope (Keyence) using a TRITC filter. Subsequently, the cells were harvested using 0.25% trypsin-EDTA solution, washed twice with PBS, and centrifuged. The cell pellet was dispersed using PBS containing 3% FBS, stained with LIVE/DEAD Fixable Green Dead Cell Stain Kit (Thermo Fisher Scientific) according to manufacturer's instructions. […] Relative value in mean fluorescence intensity (MFI) was calculated with respect to the control samples without CytoB.
# [2] = system: 293T cells; test: Screening of anchoring protein HA fusion constructs, PE anti-HA flow cytometry; format: cell-based; settings: live cells, gated on eGFP
# From the text: FIG. 15A depicts exemplary constructs used for the determination and identification of cell surface targeting ligands, which can be, for example, expressed on platelets to increase cell type specificity. The exemplary constructs involve custom TetOn expression vectors with left/right homologue arms to AAVS1. TetOn allows for conditional expression of targeting ligands or epitopes fused to the N- and C-termini of platelet cell surface markers (e.g. CD41, CD42a, CD61). Downstream cGFP through a P2A linker allows for successful identification of cells expressing the fusion vector. FIG. 15B depicts flow cytometry plots of 293T cells transfected with the exemplary N- or C-terminal fusion vectors depicted in FIG. 15A using CD41, CD42a, and CD61. Live cells were stained with a PE anti-HA fluorescent antibody and gated upon cGFP expression during flow cytometry analysis. PE fluorescence is shown against control (untransfected) 293T cells stained with PE anti-HA (shaded).
# [3] = system: HUVECs; test: Co-culture of MEG-01-GFP megakaryocyte-derived GFP-positive platelets with HUVECs (protein delivery); format: cell-based, human; settings: 80 μM concentration
# Method: In addition to nucleic acids such as mRNA, modified platelets were used to deliver protein. MEG-01 megakaryocytes were transduced with pLV-GFP lentivirus to induce expression of GFP (MEG-01-GFP). These megakaryocytes were cultured to produce GFP-positive platelets (FIG. 4A), which were co-cultured with HUVECs.
# In a separate experiment, GFP-positive platelets were co-cultured with mCherry-expressing HUVECs.
compound,measurement,setting,value
"C=C1[C@@H](C)[C@H]2[C@H](Cc3ccccc3)NC(=O)[C@]23OC(=O)/C=C/[C@H](O)CCC[C@@H](C)C/C=C/[C@H]3[C@@H]1O [CytoB, cytochalasin B]",effect on platelet-based mRNA delivery,[1],Prevents Platelet-Based mRNA Delivery
same,cell death (MFI of green dead cell stain),[1]; 24 hour,does not cause cell death
"C-terminal fusion of CD61 with an HA epitope: TetOn expression construct of platelet surface marker CD61 fused C-terminally to an HA epitope, with P2A eGFP",exposure of HA epitope on cell surface,[2],robust exposure of the HA epitope on the 293T cell surface
same,exposure of HA epitope on cell surface,[2]; listed as C-terminal CD61-HA fusion construct,results in anti-HA fluorescence on the cell surface
O=C(N/N=C/c1ccc(O)c(O)c1)c1cc2ccccc2cc1O [dynasore],transformation of HUVECs by platelets treated with inhibitor,[3],unable to transform HUVECs
